Measured values published in BindingDB's records for doi:10.1016/j.bmcl.2011.01.107 (Institute of Chemical Physics, 2011).

Target: NAD-dependent malic enzyme (Escherichia coli K-12, maeA) (UniProt P26616)
Assay: Inhibition of Escherichia coli K-12 recombinant NAD-dependent malic enzyme by Dixon plot

NAD-dependent malic enzyme (Escherichia coli K-12, maeA), sequence (P26616 whole entry, looked up): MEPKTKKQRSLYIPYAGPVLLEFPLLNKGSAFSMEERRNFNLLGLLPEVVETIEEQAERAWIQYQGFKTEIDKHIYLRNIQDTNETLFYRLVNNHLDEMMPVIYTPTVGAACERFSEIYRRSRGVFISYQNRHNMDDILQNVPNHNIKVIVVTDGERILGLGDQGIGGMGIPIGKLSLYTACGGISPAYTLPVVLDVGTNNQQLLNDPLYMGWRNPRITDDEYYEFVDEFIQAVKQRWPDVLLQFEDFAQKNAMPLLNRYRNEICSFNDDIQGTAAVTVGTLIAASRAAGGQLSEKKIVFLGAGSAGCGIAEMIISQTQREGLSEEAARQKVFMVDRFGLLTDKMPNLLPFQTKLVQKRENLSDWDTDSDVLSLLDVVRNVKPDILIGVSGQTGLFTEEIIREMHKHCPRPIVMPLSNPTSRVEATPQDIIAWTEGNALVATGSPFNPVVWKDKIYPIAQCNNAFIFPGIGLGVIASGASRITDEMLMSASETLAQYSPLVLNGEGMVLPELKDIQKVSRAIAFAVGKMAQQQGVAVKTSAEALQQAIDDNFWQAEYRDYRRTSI

COc1ccc(-c2cn([C@@H]3O[C@H](COP(=O)(O)O)[C@@H](O)[C@H]3O)nn2)cc1 [5-O-phosphate-1-N-(4'-(4''-methoxyhenyl))-[1',2',3']-triazol-beta-D-ribofuranoside]
Ki: 57 µM
